Where a name gives a salt, the structure may show the parent alone.
system: rodent model of post-operative pain; experiment: not given; conditions: Anesthesia and Analgesia 2001, 92, 233-238; cited from earlier work

| Compound | mechanical hyperalgesia |
| --- | --- |
| Cc1cc(Cl)ccc1S(=O)(=O)NC[C@H]1C2CCC(CC2)[C@@H]1/C=C\CCCC(=O)O [ONO-8711] | inhibits mechanical hyperalgesia |

system: rat model of chronic constriction injury; experiment: not given; conditions: Anesthesia and Analgesia 2001, 93, 1012-7; cited from earlier work

| Compound | hyperalgesia and allodynia |
| --- | --- |
| Cc1cc(Cl)ccc1S(=O)(=O)NC[C@H]1C2CCC(CC2)[C@@H]1/C=C\CCCC(=O)O [ONO-8711] | reduces hyperalgesia and allodynia |

system: gastric lesions induced by taurocholate acid, aspirin or indomethacin; experiment: not given; conditions: rats, J Pharmacol Exp Ther 1992, 263(1), 374-380; cited from earlier work

| Compound | gastric lesions |
| --- | --- |
| O=C(O)Cc1ccc(CCNS(=O)(=O)c2ccc(Cl)cc2)cc1 [BM 13505] | inhibit gastric lesions |
| O=C(O)CCc1ccccc1CC1C2CCC(O2)C1c1nc(C(=O)NCCCCC2CCCCC2)co1 (stereo not drawn) [SQ 33961] | inhibit gastric lesions |

target: T1, human EP3 receptor (Homo sapiens, UniProt P43115); experiment: human EP3 calcium mobilisation assay; format: cell-based; conditions: negative logarithm10 of the antagonist dissociation constant; CHO-K1 cells, PGE2; free bases or sodium salts; averages of a number of experiments; read-out: functional pKi value (converted)
T1 construct: expressed in transfected cells; host or cells: CHO-K1
T1 sequence (P43115 1-390): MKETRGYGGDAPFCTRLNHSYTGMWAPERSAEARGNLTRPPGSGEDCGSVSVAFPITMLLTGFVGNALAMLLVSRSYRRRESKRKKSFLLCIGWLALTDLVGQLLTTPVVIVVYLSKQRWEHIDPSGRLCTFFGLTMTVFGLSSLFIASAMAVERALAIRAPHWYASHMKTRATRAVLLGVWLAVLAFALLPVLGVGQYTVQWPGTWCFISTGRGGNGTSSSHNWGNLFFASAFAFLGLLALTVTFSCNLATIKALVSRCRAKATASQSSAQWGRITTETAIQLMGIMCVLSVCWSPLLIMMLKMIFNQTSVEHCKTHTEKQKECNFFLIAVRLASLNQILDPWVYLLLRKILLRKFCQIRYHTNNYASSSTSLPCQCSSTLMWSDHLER
Method: Briefly, the antagonist properties of compounds are assessed by their ability to inhibit the mobilisation of intracellular calcium ([Ca^2+]i) in response to activation of EP1 or EP3 receptors by the natural agonist hormone prostaglandin E2 (PGE2). Increasing concentrations of antagonist reduce the amount of calcium that a given concentration of PGE2 can mobilise. The net effect is to displace the PGE2 concentration-effect curve to higher concentrations of PGE2. The amount of calcium produced is assessed using a calcium-sensitive fluorescent dye such as Fluo-4, AM and a suitable instrument such as a Fluorimetric Imaging Plate Reader (FLIPR). Increasing amounts of [Ca^2+]i produced by receptor activation increase the amount of fluorescence produced by the dye and give rise to an increasing signal. The signal may be detected using the FLIPR instrument and the data generated may be analysed with suitable curve-fitting software.
The human EP1 or EP3 calcium mobilisation assay (hereafter referred to as ‘the calcium assay’) utilises Chinese hamster ovary-K1 (CHO-K1) cells into which a stable (pCIN; BioTechniques 20 (1996): 102-110) vector containing either EP1 or EP3 cDNA has previously been transfected. Cells are cultured in suitable flasks containing culture medium such as DMEM:F-12 supplemented with 10% v/v foetal calf serum, 2 mM L-glutamine, 0.25 mg/ml geneticin, 100 μM flurbiprofen and 10 μg/ml puromycin.
For assay, cells are harvested using a proprietary reagent that dislodges cells such as Versene. Cells are re-suspended in a suitable quantity of fresh culture media for introduction into a 384-well plate. Following incubation for 24 hours at 37° C. the culture media is replaced with a medium containing Fluo-4 and the detergent pluronic acid, and a further incubation takes place. Concentrations of compounds are then added to the plate in order to construct concentration-effect curves. This may be performed on the FLIPR in order to assess the agonist properties of the compounds. Concentrations of PGE2 are then added to the plate in order to assess the antagonist properties of the compounds.
The data so generated may be analysed by means of a computerised curve-fitting routine. The concentration of compound that elicits a half-maximal inhibition of the calcium mobilisation induced by PGE2 (plC50) may then be estimated.

| Ki [nM] | Compound |
| --- | --- |
| 158 to 316 | Cc1cc(NC(=O)C(F)(F)F)nn1Cc1cc(Cl)ccc1OCC(C)C [Example 95, N-[1-({5-Chloro-2-[(2-methylpropyl)oxy]phenyl}methyl)-5-methyl-1H-pyrazol-3-yl]-2,2,2-trifluoroacetamide] |
| 158 to 316 | Cc1cc(N(C)C(=O)c2ccccc2)nn1Cc1cc(Cl)ccc1OCc1ccccc1 [Example 180, N-[1-({5-Chloro-2-[(phenylmethyl)oxy]phenyl}methyl)-5-methyl-1H-pyrazol-3-yl]-N-methylbenzamide] |
| 158 to 316 | Cc1cc(NC(=O)c2ccccc2CO)nn1Cc1cc(Cl)ccc1OCC(C)C [Example 183, N-[1-({5-Chloro-2-[(2-methylpropyl)oxy]phenyl}methyl)-5-methyl-1H-pyrazol-3-yl]-2-(hydroxymethyl)benzamide] |
| 158 to 316 | Cc1cc(N2Cc3ccccc3C2=O)nn1Cc1cc(Cl)ccc1OCC(C)C [Example 184, 2-[1-({5-Chloro-2-[(2-methylpropyl)oxy]phenyl}methyl)-5-methyl-1H-pyrazol-3-yl]-2,3-dihydro-1H-isoindol-1-one] |
| 158 to 316 | Cc1cc(NC(=O)c2cccc(C=O)c2)nn1Cc1cc(Cl)ccc1OCC(C)C [Example 187, N-[1-({5-Chloro-2-[(2-methylpropyl)oxy]phenyl}methyl)-5-methyl-1H-pyrazol-3-yl]-3-formylbenzamide] |
| 158 to 316 | Cc1cc(N2CCN(Cc3ccccn3)CC2=O)nn1Cc1cc(Cl)ccc1OCC(C)C [Example 227, 1-[1-({5-Chloro-2-[(2-methylpropyl)oxy]phenyl}methyl)-5-methyl-1H-pyrazol-3-yl]-4-(2-pyridinylmethyl)-2-piperazinone dihydrochloride] |
| 158 to 316 | Cc1cc(-c2cn3ccccc3n2)nn1Cc1cc(Cl)ccc1OCC(C)C [Example 364, 2-[1-({5-Chloro-2-[(2-methylpropyl)oxy]phenyl}methyl)-5-methyl-1H-pyrazol-3-yl]imidazo[1,2-a]pyridine hydrochloride] |
| 158 to 316 | CCOC(CNC(=O)c1cc(C)n(Cc2cc(Cl)ccc2OCC(C)C)n1)OCC [Example 387, N-[2,2-Bis(ethyloxy)ethyl]-1-({5-chloro-2-[(2-methylpropyl)oxy]phenyl}methyl)-5-methyl-1H-pyrazole-3-carboxamide] |

| Compound | Ki [nM] |
| --- | --- |
| CCC(C)NC(=O)Oc1cc(C)n(Cc2cc(Cl)ccc2OCC(C)C)n1 (stereo not drawn) [Example 50, 1-({5-Chloro-2-[(2-methylpropyl)oxy]phenyl}methyl)-5-methyl-1H-pyrazol-3-yl (1-methylpropyl)carbamate] | 158 to 316 |
| Cc1cc(OC(=O)NC2CCCC2)nn1Cc1cc(Cl)ccc1OCC(C)C [Example 52, 1-({5-Chloro-2-[(2-methylpropyl)oxy]phenyl}methyl)-5-methyl-1H-pyrazol-3-yl cyclopentylcarbamate] | 158 to 316 |
| Cc1cc(N(C)C(=O)OC(C)(C)C)nn1Cc1cc(Cl)ccc1OCc1ccccc1 [Example 75, 1,1-Dimethylethyl[({5-chloro-2-[(phenylmethyl)oxy]phenyl}methyl)-5-methyl-1H-pyrazol-3-yl]methylcarbamate] | 158 to 316 |

— patent US20090239845A1, “PYRAZOLE COMPOUNDS AS PROSTAGLANDIN RECEPTORS LIGANDS” (priority 2005, published 2009)
